Results: the supplement of paper PMC10627819

How the values were obtained:
S. pneumoniae D39V [1] = experiment: Bliss interaction score (quartile over a dose matrix) (fitness difference); higher = more antagonism (negative = synergy)
How it was run: (§1)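 Quartiles summarise the Bliss score over technical, biological and donor/recipient replicates, where the score is observed minus expected fitness under a product model. Expected fitness uses single-drug values inferred from combination data. Fitness is OD595 at entry into stationary phase over the plate's robust no-drug mean, capped at 1.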

S. aureus Newman = experiment: as above
How it was run: as §1

B. subtilis 168 [2] = experiment: as above
How it was run: as §1

S. aureus DSM 20231 [3] = experiment: as above
How it was run: as §1

S. pneumoniae D39V [4] = experiment: fitness (endpoint OD595 vs no drug) (fraction); higher = more growth
How it was run: (§2)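 Cultures at OD595 0.01 were dispensed into 384-well plates in TSB, LB Lennox or CY and incubated at 37 °C. Every 30 min for 14 h, OD595 was read and corrected by the first reading. Fitness is the optical density at entry into stationary phase relative to the robust mean of no-drug control wells, capped at 1.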

B. subtilis 168 [5] = experiment: as above
How it was run: as §2

S. aureus DSM 20231 [6] = experiment: as above
How it was run: as §2
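For Bliss interaction score (quartile over a dose matrix) in this document: first quartile when negative (synergy) and third quartile when positive (antagonism).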

CC(=O)NC[C@H]1CN(c2ccc(N3CCOCC3)c(F)c2)C(=O)O1 [Linezolid] + COc1c(N2C[C@@H]3CCCN[C@@H]3C2)c(F)cc2c(=O)c(C(=O)O)cn(C3CC3)c12 [Moxifloxacin]
Conditions	Bliss interaction score
B. subtilis 168 [2]	0.0351
S. aureus DSM 20231 [3]	0.0931
S. aureus Newman	0.074
S. pneumoniae D39V [1]	0.0972

Conditions	fitness
B. subtilis 168 [5], first compound 0.125 µg/mL, partner 0.0312 µg/mL	0.0559
B. subtilis 168 [5], first compound 0.125 µg/mL, partner 0.0625 µg/mL	0.0387
B. subtilis 168 [5], first compound 0.125 µg/mL, partner 0.125 µg/mL	0.0364
B. subtilis 168 [5], first compound 0.125 µg/mL, partner 2 µg/mL	0.036
B. subtilis 168 [5], first compound 0.125 µg/mL, partner 4 µg/mL	0.0272
B. subtilis 168 [5], first compound 0.125 µg/mL, partner 8 µg/mL	0.0181
B. subtilis 168 [5], first compound 0.25 µg/mL, partner 0.0312 µg/mL	0.242
B. subtilis 168 [5], first compound 0.25 µg/mL, partner 0.0625 µg/mL	0.0554
B. subtilis 168 [5], first compound 0.25 µg/mL, partner 0.125 µg/mL	0.0577
B. subtilis 168 [5], first compound 0.25 µg/mL, partner 2 µg/mL	0.0241
B. subtilis 168 [5], first compound 0.25 µg/mL, partner 4 µg/mL	0.0237
B. subtilis 168 [5], first compound 0.25 µg/mL, partner 8 µg/mL	0.0144
B. subtilis 168 [5], first compound 0.5 µg/mL, partner 0.0312 µg/mL	0.044
B. subtilis 168 [5], first compound 0.5 µg/mL, partner 0.0625 µg/mL	0.0596
B. subtilis 168 [5], first compound 0.5 µg/mL, partner 0.125 µg/mL	0.0457
B. subtilis 168 [5], first compound 0.5 µg/mL, partner 2 µg/mL	0.0308
B. subtilis 168 [5], first compound 0.5 µg/mL, partner 4 µg/mL	0.021
B. subtilis 168 [5], first compound 0.5 µg/mL, partner 8 µg/mL	0.0223
S. aureus DSM 20231 [6], first compound 0.125 µg/mL, partner 0.0075 µg/mL	0.795
S. aureus DSM 20231 [6], first compound 0.125 µg/mL, partner 0.015 µg/mL	0.743
S. aureus DSM 20231 [6], first compound 0.125 µg/mL, partner 0.03 µg/mL	0.671
S. aureus DSM 20231 [6], first compound 0.25 µg/mL, partner 0.0075 µg/mL	0.541
S. aureus DSM 20231 [6], first compound 0.25 µg/mL, partner 0.015 µg/mL	0.5
S. aureus DSM 20231 [6], first compound 0.25 µg/mL, partner 0.03 µg/mL	0.582
S. aureus DSM 20231 [6], first compound 0.5 µg/mL, partner 0.0075 µg/mL	0.12
S. aureus DSM 20231 [6], first compound 0.5 µg/mL, partner 0.015 µg/mL	0.178
S. aureus DSM 20231 [6], first compound 0.5 µg/mL, partner 0.03 µg/mL	0.272
S. pneumoniae D39V [4], first compound 0.105 µg/mL, partner 0.0037 µg/mL	0.739
S. pneumoniae D39V [4], first compound 0.105 µg/mL, partner 0.0075 µg/mL	0.741
S. pneumoniae D39V [4], first compound 0.105 µg/mL, partner 0.015 µg/mL	0.73
S. pneumoniae D39V [4], first compound 0.2 µg/mL, partner 0.005 µg/mL	0.839
S. pneumoniae D39V [4], first compound 0.2 µg/mL, partner 0.01 µg/mL	0.858
S. pneumoniae D39V [4], first compound 0.2 µg/mL, partner 0.02 µg/mL	0.826
S. pneumoniae D39V [4], first compound 0.21 µg/mL, partner 0.0037 µg/mL	0.647
S. pneumoniae D39V [4], first compound 0.21 µg/mL, partner 0.0075 µg/mL	0.651
S. pneumoniae D39V [4], first compound 0.21 µg/mL, partner 0.015 µg/mL	0.624
S. pneumoniae D39V [4], first compound 0.4 µg/mL, partner 0.005 µg/mL	0.704
S. pneumoniae D39V [4], first compound 0.4 µg/mL, partner 0.01 µg/mL	0.715
S. pneumoniae D39V [4], first compound 0.4 µg/mL, partner 0.02 µg/mL	0.68
S. pneumoniae D39V [4], first compound 0.42 µg/mL, partner 0.0037 µg/mL	0.366
S. pneumoniae D39V [4], first compound 0.42 µg/mL, partner 0.0075 µg/mL	0.424
S. pneumoniae D39V [4], first compound 0.42 µg/mL, partner 0.015 µg/mL	0.449
S. pneumoniae D39V [4], first compound 0.8 µg/mL, partner 0.005 µg/mL	0.45
S. pneumoniae D39V [4], first compound 0.8 µg/mL, partner 0.02 µg/mL	0.461

one replicate
Conditions	fitness
B. subtilis 168 [5], first compound 0.0625 µg/mL, partner 0.0312 µg/mL	0.0541
B. subtilis 168 [5], first compound 0.0625 µg/mL, partner 0.0625 µg/mL	0.0464
B. subtilis 168 [5], first compound 0.0625 µg/mL, partner 0.125 µg/mL	0.0299
S. aureus DSM 20231 [6], first compound 0.125 µg/mL, partner 0.06 µg/mL	0.712
S. aureus DSM 20231 [6], first compound 0.125 µg/mL, partner 0.12 µg/mL	0.535
S. aureus DSM 20231 [6], first compound 0.25 µg/mL, partner 0.06 µg/mL	0.655
S. aureus DSM 20231 [6], first compound 0.25 µg/mL, partner 0.12 µg/mL	0.536
S. aureus DSM 20231 [6], first compound 0.5 µg/mL, partner 0.06 µg/mL	0.44
S. aureus DSM 20231 [6], first compound 0.5 µg/mL, partner 0.12 µg/mL	0.368
S. aureus DSM 20231 [6], first compound 1 µg/mL, partner 0.0075 µg/mL	0.0168
S. aureus DSM 20231 [6], first compound 1 µg/mL, partner 0.015 µg/mL	0.0282
S. aureus DSM 20231 [6], first compound 1 µg/mL, partner 0.03 µg/mL	0.0258

CC(=O)NC[C@H]1CN(c2ccc(N3CCOCC3)c(F)c2)C(=O)O1 [Linezolid] + COc1cc(Cc2cnc(N)nc2N)cc(OC)c1OC [Trimethoprim]
Conditions	Bliss interaction score
B. subtilis 168 [2]	0.0503
S. aureus DSM 20231 [3]	0.129
S. aureus Newman	0.096
S. pneumoniae D39V [1]	-0.161

one replicate
Conditions	fitness
B. subtilis 168 [5], first compound 0.0625 µg/mL, partner 0.125 µg/mL	0.455
B. subtilis 168 [5], first compound 0.0625 µg/mL, partner 0.25 µg/mL	0.379
B. subtilis 168 [5], first compound 0.0625 µg/mL, partner 0.5 µg/mL	0.365
B. subtilis 168 [5], first compound 0.125 µg/mL, partner 0.1 µg/mL	0.661
B. subtilis 168 [5], first compound 0.125 µg/mL, partner 0.2 µg/mL	0.51
B. subtilis 168 [5], first compound 0.125 µg/mL, partner 0.4 µg/mL	0.458
B. subtilis 168 [5], first compound 0.125 µg/mL, partner 1 µg/mL	0.338
B. subtilis 168 [5], first compound 0.125 µg/mL, partner 2 µg/mL	0.252
B. subtilis 168 [5], first compound 0.25 µg/mL, partner 0.1 µg/mL	0.224
B. subtilis 168 [5], first compound 0.25 µg/mL, partner 0.2 µg/mL	0.137
B. subtilis 168 [5], first compound 0.25 µg/mL, partner 0.4 µg/mL	0.0855
B. subtilis 168 [5], first compound 0.25 µg/mL, partner 1 µg/mL	0.0539
B. subtilis 168 [5], first compound 0.25 µg/mL, partner 2 µg/mL	0.0332
B. subtilis 168 [5], first compound 0.5 µg/mL, partner 0.1 µg/mL	0.0326
B. subtilis 168 [5], first compound 0.5 µg/mL, partner 0.125 µg/mL	0.0335
B. subtilis 168 [5], first compound 0.5 µg/mL, partner 0.2 µg/mL	0.0707
B. subtilis 168 [5], first compound 0.5 µg/mL, partner 0.4 µg/mL	0.034
B. subtilis 168 [5], first compound 0.5 µg/mL, partner 1 µg/mL	0.0459
B. subtilis 168 [5], first compound 0.5 µg/mL, partner 2 µg/mL	0.0328
S. aureus DSM 20231 [6], first compound 0.125 µg/mL, partner 0.125 µg/mL	0.693
S. aureus DSM 20231 [6], first compound 1 µg/mL, partner 0.125 µg/mL	0.0426
S. aureus DSM 20231 [6], first compound 1 µg/mL, partner 0.25 µg/mL	0.0292
S. aureus DSM 20231 [6], first compound 1 µg/mL, partner 0.5 µg/mL	0.0293

fitness
Conditions	partner 0.125 µg/mL	partner 0.25 µg/mL	partner 0.5 µg/mL	partner 1 µg/mL
B. subtilis 168 [5], first compound 0.125 µg/mL	0.481	–	–	–
B. subtilis 168 [5], first compound 0.25 µg/mL	0.178	0.239	0.149	–
B. subtilis 168 [5], first compound 0.5 µg/mL	–	0.0539	0.0519	–
S. aureus DSM 20231 [6], first compound 0.125 µg/mL	–	0.7	0.54	0.0522
S. aureus DSM 20231 [6], first compound 0.25 µg/mL	0.511	0.566	0.462	0.118
S. aureus DSM 20231 [6], first compound 0.5 µg/mL	0.157	0.153	0.139	0.115

CC(=O)NC[C@H]1CN(c2ccc(N3CCOCC3)c(F)c2)C(=O)O1 [Linezolid] + COc1ccc(C[C@H](N)C(=O)N[C@H]2[C@@H](O)[C@H](n3cnc4c(N(C)C)ncnc43)O[C@@H]2CO)cc1 [Puromycin]
Conditions	Bliss interaction score
B. subtilis 168 [2]	0.075
S. aureus DSM 20231 [3]	-0.0587
S. aureus Newman	-0.0605
S. pneumoniae D39V [1]	-0.132

fitness
Conditions	first compound 0.105 µg/mL	first compound 0.125 µg/mL	first compound 0.21 µg/mL	first compound 0.25 µg/mL	first compound 0.42 µg/mL	first compound 0.5 µg/mL
B. subtilis 168 [5], partner 0.39 µg/mL	–	0.55	–	0.0916	–	0.0287
B. subtilis 168 [5], partner 0.78 µg/mL	–	0.569	–	0.118	–	0.0397
B. subtilis 168 [5], partner 1.56 µg/mL	–	0.599	–	0.128	–	0.0443
S. aureus DSM 20231 [6], partner 0.39 µg/mL	–	0.91	–	0.595	–	0.193
S. aureus DSM 20231 [6], partner 0.78 µg/mL	–	0.849	–	0.591	–	0.209
S. aureus DSM 20231 [6], partner 1.56 µg/mL	–	0.944	–	0.578	–	0.152
S. pneumoniae D39V [4], partner 1 µg/mL	0.833	–	0.746	–	0.606	–
S. pneumoniae D39V [4], partner 2 µg/mL	0.788	–	0.685	–	0.323	–
S. pneumoniae D39V [4], partner 4 µg/mL	0.644	–	0.446	–	0.233	–

one replicate
Conditions	fitness
B. subtilis 168 [5], first compound 0.0625 µg/mL, partner 0.39 µg/mL	0.885
B. subtilis 168 [5], first compound 0.0625 µg/mL, partner 0.78 µg/mL	0.885
B. subtilis 168 [5], first compound 0.0625 µg/mL, partner 1.56 µg/mL	0.904
S. aureus DSM 20231 [6], first compound 0.125 µg/mL, partner 3.12 µg/mL	0.824
S. aureus DSM 20231 [6], first compound 0.125 µg/mL, partner 6.24 µg/mL	0.287
S. aureus DSM 20231 [6], first compound 0.25 µg/mL, partner 3.12 µg/mL	0.344
S. aureus DSM 20231 [6], first compound 0.25 µg/mL, partner 6.24 µg/mL	0.118
S. aureus DSM 20231 [6], first compound 0.5 µg/mL, partner 3.12 µg/mL	0.0742
S. aureus DSM 20231 [6], first compound 0.5 µg/mL, partner 6.24 µg/mL	0.0788
S. aureus DSM 20231 [6], first compound 1 µg/mL, partner 0.39 µg/mL	0.0293
S. aureus DSM 20231 [6], first compound 1 µg/mL, partner 0.78 µg/mL	0.0469
S. aureus DSM 20231 [6], first compound 1 µg/mL, partner 1.56 µg/mL	0.0437
S. pneumoniae D39V [4], first compound 0.2 µg/mL, partner 1 µg/mL	0.712
S. pneumoniae D39V [4], first compound 0.2 µg/mL, partner 2 µg/mL	0.742
S. pneumoniae D39V [4], first compound 0.2 µg/mL, partner 4 µg/mL	0.608
S. pneumoniae D39V [4], first compound 0.4 µg/mL, partner 1 µg/mL	0.564
S. pneumoniae D39V [4], first compound 0.4 µg/mL, partner 2 µg/mL	0.599
S. pneumoniae D39V [4], first compound 0.4 µg/mL, partner 4 µg/mL	0.404
S. pneumoniae D39V [4], first compound 0.8 µg/mL, partner 1 µg/mL	0.181
S. pneumoniae D39V [4], first compound 0.8 µg/mL, partner 2 µg/mL	0.215
S. pneumoniae D39V [4], first compound 0.8 µg/mL, partner 4 µg/mL	0.15
